Reference: article PMC9232105, “S-Adenosylmethionine–responsive cystathionine β-synthase modulates sulfur metabolism and redox balance in Mycobacterium tuberculosis” (Science Advances, 2022)

What was measured:
[1] = target: T1, cystathionine β-synthase (MtbCbs, Rv1077) (Mycobacterium tuberculosis, UniProt P9WP51); experiment: cryo-EM ([…] Å) with SAM + Ser; cystathionine formation by acid-ninhydrin and LC-MS/MS; format: binding; parameters: gene cbs; full-length WT MtbCbs
[2] = target: T1, cystathionine β-synthase (MtbCbs, Rv1077); format: biochemical; parameters: gene cbs; full-length WT MtbCbs
[3] = target: T1, cystathionine β-synthase (MtbCbs, Rv1077); experiment: acid-ninhydrin and LC-MS/MS cystathionine formation; lead acetate kinetics with Cys; format: biochemical; parameters: gene cbs; full-length WT MtbCbs
[4] = target: T1, cystathionine β-synthase (MtbCbs, Rv1077); experiment: biochemical; format: binding; parameters: gene cbs; full-length WT MtbCbs, C-terminal 6×His
[5] = target: the molecule itself; experiment: SEC + SEC-MALS

N[C@@H](CO)C(=O)O [L-serine]
cryo-EM (4.25 Å) with SAM + Ser; cystathionine formation by acid-ninhydrin and L [1]: formation of external aldimine/aminoacrylate at the active site, which indicates association of Ser with PLP

N[C@@H](CS)C(=O)O [L-cysteine]
lead acetate H2S assay with steady-state kinetics; LC-MS/MS of lanthionine [2]: lead-acetate assay confirmed that MtbCbs generates H2S using Cys or Hcys + Cys but not from Hcys alone

NC(CCS)C(=O)O [L-Hcys]
acid-ninhydrin and LC-MS/MS cystathionine formation; lead acetate kinetics with [3]: MtbCbs produces Cysth from Ser + Hcys and Cys + Hcys

C[S+](CC[C@H](N)C(=O)[O-])C[C@H]1O[C@@H](n2cnc3c(N)ncnc32)[C@H](O)[C@@H]1O (some centres unmarked) [S-adenosylmethionine]
Kd [4]: ~128 µM

B1: Mycobacterium tuberculosis cystathionine β-synthase (MtbCbs, Rv1077), wild type (enzyme)
chain: MRIAQHISELIGGTPLVRLNSVVPDGAGTVAAKVEYLNPGGSSKDRIAVKMIEAAEASGQLKPGGTIVEPTSGNTGVGLALVAQRRGYKCVFVCPDKVSEDKRNVLIAYGAEVVVCPTAVPPHDPASYYSVSDRLVRDIDGAWKPDQYANPEGPASHYVTTGPEIWADTEGKVTHFVAGIGTGGTITGAGRYLKEVSGGRVRIVGADPEGSVYSGGAGRPYLVEGVGEDFWPAAYDPSVPDEIIAVSDSDSFDMTRRLAREEAMLVGGSCGMAVVAALKVAEEAGPDALIVVLLPDGGRGYMSKIFNDAWMSSYGFLRSRLDGSTEQSTVGDVLRRKSGALPALVHTHPSETVRDAIGILREYGVSQMPVVGAEPPVMAGEVAGSVSERELLSAVFEGRAKLADAVSAHMSPPLRMIGAGELVSAAGKALRDWDALMVVEEGKPVGVITRYDLLGFLSEGAGRR
modifications: PLP bound to K44 (internal aldimine)
notes: also called WT MtbCbs; native MtbCbs
stoichiometry N [5]: 4
